Where two headings read alike, the source gives them in different places.
How the values were obtained:
HepG2 = test: Cytotoxicity: viability of uninfected HepG2 cells; assay type: cell-based; details: read-out: HBV CC50 (HepG2)
HBV = test: Antiviral activity against HBV in HepG2.2.15 cells, viral DNA by qPCR after 6 days; details: for HBV TI (CC50/EC50): HepG2
Description: (§1) Compounds synthesized were evaluated against HIV-infected PBMCs and antiviral activity was assessed by measuring reverse transcriptase in cell supernatants. Compounds 11a-e, 12a-e, and 13 were assayed against HBV and qPCR was used to quantify viral DNA following incubation in HepG2.2.15 cells after 6 days.

HIV-1 = test: microbe, parasite or virus in culture; details: for HIV-1 potency compared to parent nucleoside TFV: in words
Description: as §1

PBMCs = test: in vitro; assay type: cell-based, human
[1] = Stability in PBS (pH 7.4), carbonate/bicarbonate buffer (pH 9) and DMEM by LC-MS; details: for half-life: PBS buffer
Description: Compound 11c and 11d were selected as model compounds and subjected to various media including human serum, PBS buffer (pH 7.4), Dulbecco's Modified Eagle Medium (DMEM), and carbonate/bicarbonate buffer (pH 9). Aliquots of each sample were analyzed by LC-MS at varying times points over the course of 2 hours with a final time point at 24 to assess decomposition.
Experiments were performed to see how compounds how compounds 11c and 11d would fare in the presence of base (pH 9), PBS (pH 7.4), and upon exposure to nucleophilic media (DMEM). […] To this end, the stability of hexadecyloxypropyl 2′-deoxy-2′-fluorouridine, a non-labile alkoxyalkyl lipid conjugate of 2′-deoxy-2′-fluorouridine in PBS buffer using Pyrex, Kimax, and silanized glassware was assessed. […] This prompted re-assessment of the PBS stability of the disulfide lipid conjugates in Kimax glassware. Note that all stability experiments were performed in Kimax glassware using hexadecyloxypropyl 2′-deoxy-2′-fluorouridine as an internal standard.

[2] = Cytotoxicity: viability of uninfected HepG2 cells; assay type: cell-based; details: human, uninfected HepG2 cells; Table 1; uninfected cells; read-out: HBV CC50 (HepG2)
[3] = Stability in human plasma/serum by LC-MS; assay type: in vitro ADME
Description: Aliquots of each sample were analyzed by LC-MS at varying times points over the course of 2 hours with a final time point at 24 to assess decomposition.

in vitro = assay type: cell-based, human; details: human, uninfected PBMCs; Table 1; viability of uninfected cells reduced by 50%; read-out: HIV-1 CC50 (PBMCs)
[4] = rats; cited from earlier work
[5] = monkeys; cited from earlier work
[6] = read-out: HBV EC50 (HepG2), Table 1, inhibit HBV by 50%
[7] = read-out: HIV-1 activity (EC50), PBMCs
[8] = Table 1, viability of uninfected cells reduced by 50%, read-out: HIV-1 CC50 (PBMCs)
[9] = read-out: HIV-1 EC50 (PBMCs), Table 1, inhibit HIV-1 by 50%, average of triplicate
[10] = read-out: HBV EC50 (HepG2), Table 2
[11] = read-out: HIV-1 EC50 (PBMCs), Table 2
[12] = Table 2, read-out: HIV-1 CC50 (PBMCs)

Compound | CC50 (HepG2; Table 1, uninfected cells) [µM] | HBV TI (CC50/EC50) (HBV; Table 1) | EC50 (HBV; [6]) [µM] | HIV-1 TI (CC50/EC50) (HIV-1; Table 1, PBMCs) | CC50 (PBMCs; [8]) [µM] | EC50 (HIV-1; [9]) [µM] | CC50 (HepG2; Table 2) [µM] | HBV TI (CC50/EC50) (HBV; Table 2) | EC50 (HBV; [10]) [µM] | HIV-1 TI (CC50/EC50) (HIV-1; Table 2, PBMCs) | EC50 (HIV-1; [11]) [µM] | CC50 (PBMCs; [12]) [µM] | further results
CCCCCCCCCCCCSSCCOP(=O)(O)CO[C@H](C)Cn1cnc2c(N)ncnc21.N [Compound 11b] | > 50 | >30 | 1.67 | 8,300 | 25 | – | – | – | – | – | – | – | EC50 (HIV-1; [7]): 0.003 µM; fold more active than CMX-157, HIV-1 (HIV-1; vs CMX-157 (20 nM)): seven-fold
CCCCCCCCCCCCCCSSCCOP(=O)(O)CO[C@H](C)Cn1cnc2c(N)ncnc21.N [Compound 11c] | > 25 | >56 | 0.444 | 28,000 | 14 | 0.0005 | – | – | – | – | – | – | stability of C14 chain relative to C16 linker of compound 11d ([1]; all examined media except human serum): near two-fold stability increase
CCCCCCCCCCCCCCCCSSCCOP(=O)(O)COC(C)Cn1cnc2c(N)ncnc21 (stereo not shown) [Compound 11d, 2-(hexadecyldisulfanyl)ethyl hydrogen (((1-(6-amino-9H-purin-9-yl)propan-2-yl)oxy)methyl)phosphonate] | – | >1250 | – | 22,000 | – | – | – | – | – | – | – | – | CC50 (HepG2; Table 3): > 25 µM; CC50 [2]: > 25 µM; half-life ([1]; carbonate/bicarbonate buffer and DMEM, pH 9): ≤ 2 h; half-life ([1]; pH 7.4): < 0.333 h; half-life ([3]; human serum, Kimax glassware, read-out: stability (half-life) in human serum): > 24 h; half-life ([3]; human, human plasma, read-out: half-life in human plasma): > 24 h; EC50 (HBV; Hepatitis B virus, HepG2, read-out: HBV EC50 (HepG2)): 0.02 µM; EC50 (HBV; Hepatitis B virus, HepG2, read-out: HBV potency): 0.02 µM; HBV TI (CC50/EC50) (HBV; Table 3): >1200; EC50 (HIV-1; Human immunodeficiency virus 1, PBMC, read-out: HIV-1 EC50 (PBMCs)): 0.00065 µM; EC50 (HIV-1; Human immunodeficiency virus 1, PBMC, read-out: HIV-1 activity (EC50)): ~0.0005 µM; HIV-1 TI (CC50/EC50) (HIV-1; Table 3, PBMCs): 22,000; CC50 (in vitro): 14.3 µM
CCCCCCCCCCCCCCCCCCSSCCOP(=O)(O)CO[C@H](C)Cn1cnc2c(N)ncnc21.N [Compound 11e] | > 50 | >50 | 0.505 | 11,000 | 6.36 | 0.0006 | – | – | – | – | – | – | –
CCCCCCCCCCSSCCOP(=O)(CO[C@H](C)Cn1cnc2c(N)ncnc21)OCCSSCCCCCCCCCC [Compound 12a] | – | – | – | – | – | – | > 100 | >1 | > 100 | >287 | 0.349 | > 100 | HIV-1 potency compared to parent nucleoside TFV (HIV-1): comparable to TFV
CCCCCCCCCCCCSSCCOP(=O)(CO[C@H](C)Cn1cnc2c(N)ncnc21)OCCSSCCCCCCCCCCCC [Compound 12b] | – | – | – | – | – | – | > 100 | >1 | > 100 | >85.0 | 1.18 | > 100 | –
CCCCCCCCCCCCCCSSCCOP(=O)(CO[C@H](C)Cn1cnc2c(N)ncnc21)OCCSSCCCCCCCCCCCCCC [Compound 12c] | – | – | – | – | – | – | > 100 | >1 | > 100 | >529 | 0.189 | > 100 | HIV-1 potency compared to parent nucleoside TFV (HIV-1): two-fold increase in activity
CCCCCCCCCCCCCCCCSSCCOP(=O)(CO[C@H](C)Cn1cnc2c(N)ncnc21)OCCSSCCCCCCCCCCCCCCCC [Compound 12d] | – | – | – | – | – | – | > 25 | >1 | > 25 | 4.0 | 6.32 | > 25 | –
CCCCCCCCCCCCCCCCCCSSCCOP(=O)(CO[C@H](C)Cn1cnc2c(N)ncnc21)OCCSSCCCCCCCCCCCCCCCCCC [Compound 12e] | – | – | – | – | – | – | > 25 | >1 | > 25 | >76 | 0.331 | > 25 | HIV-1 potency compared to parent nucleoside TFV (HIV-1): comparable to TFV
C[C@H](Cn1cnc2c(N)ncnc21)OCP(=O)(O)OCCSSCCO [DTE-TFV, reference compound] | > 100 | >8.6 | 11.6 | >62.1 | > 100 | 1.61 | – | – | – | – | – | – | t1/2 in human plasma ([3]; human plasma): 0.567 h; fold less active than TFV against HIV-1 (HIV-1): 5 fold
Nc1ncnc2c1ncn2CCOCP(=O)(O)O [adefovir] | – | – | – | – | – | – | – | – | – | – | – | – | bioavailability [4]: 8-11%; bioavailability [5]: < 1%
tenofovir disoproxil fumarate [TDF, reference compound] | 64.5 | 190 | 0.34 | 9,500 | 43.7 | 0.0046 | 29.2 | 86 | 0.34 | 9,500 | 0.0046 | 43.7 | CC50 (HepG2; Table 3): 64.5 µM; HBV TI (CC50/EC50) (HBV; Table 3): 190; EC50 (HBV; read-out: HBV EC50 (HepG2), Table 3): 0.34 µM; HIV-1 TI (CC50/EC50) (HIV-1; Table 3, PBMCs): 9,500; TI(CC50/EC50) (HIV-1; Table 4, HIV-1, PBMCs): 9,500; EC50 (HIV-1; read-out: EC50 (PBMCs), Table 4, HIV-1): 0.0046 µM; EC50 (HIV-1; read-out: HIV-1 EC50 (PBMCs), Table 3): 0.0045 µM; EC50 (HIV-1; [7]): 0.0046 µM; CC50 (PBMCs; Table 3, read-out: HIV-1 CC50 (PBMCs)): 44 µM; CC50 (PBMCs; Table 4, read-out: CC50 (PBMCs)): 43.7 µM
